Measurements as given in patent publication US4272437A, “Antibacterial agents, and 4-thio azetidinone intermediates” (priority 1979, dated 1981).
Converted amounts (≈) assume the structure as drawn. “And” between values parts separate entries of the source, which are not always exact repeats. Equal values may be shown once. Read-outs that look alike come from different tables or passages of the source.

Legend:
K. pneumoniae A-15130 = assay: MIC, tube dilution, Klebsiella pneumoniae A15130; assay type: cell-based; conditions: overnight 37° C.
Description: (§1) Representative compounds of the present invention were subjected to in vitro antibiotic screening against a variety of microorganisms.

Ent. cloacae A-9659 = assay: MIC, tube dilution, Enterobacter cloacae A9659; assay type: cell-based; conditions: overnight 37° C.
Description: as §1

Pr. vulgaris A-9716 = assay: MIC, tube dilution, Proteus vulgaris / Proteus mirabilis A9716; assay type: cell-based, Proteus vulgaris (name changed to Proteus mirabilis); conditions: overnight 37° C.
Description: as §1

S. aureus A9537 = assay: In vivo protection of mice, lethal infection with S. aureus A9537; conditions: Staphylococcus aureus, A9537, im, read-out: PD50
Procedure: Representative compounds of the present invention were also tested in vivo in mice and their PD50 (dose of compound in mg/kg required to protect 50% of the treated mice against an otherwise lethal infection of a micro-organism) values determined with respect to the test organisms shown below.

[1] = tested on: Klebsiella species A20468; assay: MIC, tube dilution, Klebsiella species A20468; assay type: cell-based; conditions: Klebsiella species (K. pneumoniae) A20468, overnight 37° C.
Description: as §1

E. coli A-20341-1 = assay: MIC, tube dilution, Escherichia coli A20341-1; assay type: cell-based; conditions: E. coli A20341-1, overnight 37° C.
Description: as §1

Staph. aureus A-9537 = assay: MIC, tube dilution, Staphylococcus aureus A9537; assay type: cell-based; conditions: overnight 37° C., Nutrient Broth
Description: as §1

Str. faecalis A-20688 = assay: MIC, tube dilution, Streptococcus faecalis A20688; assay type: cell-based; conditions: overnight 37° C.
Description: as §1

Pr. morganii A-15153 = assay: MIC, tube dilution, Proteus morganii A15153; assay type: cell-based; conditions: overnight 37° C.
Description: as §1

Pr. mirabilis A-9900 = assay: MIC, tube dilution, Proteus mirabilis A9900; assay type: cell-based; conditions: overnight 37° C.
Description: as §1

Ser. marcescens A-20019 = assay: MIC, tube dilution, Serratia marcescens A20019; assay type: cell-based; conditions: overnight 37° C.
Description: as §1

[2] = tested on: Staph. aureus (Pen-Res) A-9606; assay: MIC, tube dilution, Staphylococcus aureus A9606 (Pen-Res); assay type: cell-based; conditions: Staph. aureus A9606 (Pen-Res), overnight 37° C.
Description: as §1

E. coli A-15119 = assay: MIC, tube dilution, Escherichia coli A15119; assay type: cell-based; conditions: overnight 37° C.
Description: as §1

[3] = tested on: Staph. aureus (Meth-Res) A-15097; assay: MIC, tube dilution, Staphylococcus aureus A15097 (Meth-Res); assay type: cell-based; conditions: Staph. aureus A15097 (Meth-Res), overnight 37° C.
Description: as §1

[4] = tested on: Staph. aureus A-9537 and 50% serum; assay: MIC, tube dilution, Staph. aureus A9537 + 50% serum; assay type: cell-based, Staphylococcus aureus; conditions: overnight 37° C.
Description: as §1

[5] = tested on: Providencia stuartii A21205; assay: MIC, tube dilution, Providencia stuartii (Pr. rettgeri) A21205; assay type: cell-based; conditions: Providencia stuartii
Description: as §1

Str. pneumoniae A-9585 = assay: MIC, tube dilution, Streptococcus pneumoniae A9585; assay type: cell-based; conditions: Streptococcus pneumoniae, A9585, Str. pneumoniae A9585; overnight 37° C., Nutrient Broth; read-out: Minimum Inhibitory Concentration (M.I.C.)
Description: as §1

Ent. cloacae A-9656 = assay: MIC, tube dilution, Enterobacter cloacae A9656; assay type: cell-based; conditions: Enterobacter cloacae, A9656, Enterobacter cloacae A9656; overnight 37° C.; read-out: Minimum Inhibitory Concentration (M.I.C.)
Description: as §1

Ps. aeruginosa A-21213 = assay: MIC, tube dilution, Pseudomonas aeruginosa A21213; assay type: cell-based; conditions: Pseudomonas aeruginosa A21213; overnight 37° C.; read-out: Minimum Inhibitory Concentration (M.I.C.)
Description: as §1

Str. pyogenes A-9604 = assay: MIC, tube dilution, Streptococcus pyogenes A9604; assay type: cell-based; conditions: Streptococcus pyogenes, A9604, Str. pyogenes A9604; overnight 37° C., Nutrient Broth; read-out: Minimum Inhibitory Concentration (M.I.C.)
Description: as §1

Ps. aeruginosa A-9843A = assay: MIC, tube dilution, Pseudomonas aeruginosa A9843A; assay type: cell-based; conditions: Pseudomonas aeruginosa, A9843A, read-out: Minimum Inhibitory Concentration (M.I.C.), Pseudomonas aeruginosa A9843A; overnight 37° C.
Description: as §1

[6] = Staphylococcus aureus, read-out: Minimum Inhibitory Concentration (M.I.C.)

Question: How did the “Minimum Inhibitory Concentration (M.I.C.)” value (K. pneumoniae A-15130; K. pneumoniae A15130) turn out when `O=C([O-])C1=C(Cc2ccccc2)S[C@@H]2CC(=O)N12.[Na+]` [Example 13, Sodium 2-Benzylpenem-3-carboxylate] was run?
Answer: The value was 63 µg/mL.

Question: And the “Minimum Inhibitory Concentration (M.I.C.)” value (Ent. cloacae A-9659; Enterobacter cloacae A9659)?
Answer: The value was 63 µg/mL.

Question: And the “Minimum Inhibitory Concentration (M.I.C.)” value (Pr. vulgaris A-9716; Proteus vulgaris / Proteus mirabilis A9716)?
Answer: Its value is 2 µg/mL.

Question: And the ED50 (S. aureus A9537)?
Answer: The ED50 was 12.5 mg/kg.

Question: And the “Minimum Inhibitory Concentration (M.I.C.)” value [1]?
Answer: The value was 125 µg/mL.

Question: What about the “Minimum Inhibitory Concentration (M.I.C.)” value (E. coli A-20341-1) of the same compound?
Answer: The value was 125 µg/mL.

Question: And the “Minimum Inhibitory Concentration (M.I.C.)” value (Staph. aureus A-9537; Staph. aureus A9537)?
Answer: The value was “.13 µg/mL”.

Question: And the “Minimum Inhibitory Concentration (M.I.C.)” value (Str. faecalis A-20688; Str. faecalis A20688)?
Answer: The value was 32 µg/mL.

Question: What about the “Minimum Inhibitory Concentration (M.I.C.)” value (Pr. morganii A-15153; Proteus morganii A15153) of the same compound?
Answer: Its value is 4 µg/mL.

Question: And the “Minimum Inhibitory Concentration (M.I.C.)” value (Pr. mirabilis A-9900; Proteus mirabilis A9900)?
Answer: The value was 2 µg/mL.

Question: And the “Minimum Inhibitory Concentration (M.I.C.)” value (Ser. marcescens A-20019; Serratia marcescens A20019)?
Answer: The value was 32 µg/mL and 63 µg/mL.

Question: What about the “Minimum Inhibitory Concentration (M.I.C.)” value [2] of the same compound?
Answer: The value was 1 µg/mL.

Question: What about the “Minimum Inhibitory Concentration (M.I.C.)” value (E. coli A-15119; E. coli A15119) of the same compound?
Answer: The value was 4 µg/mL.

Question: And the “Minimum Inhibitory Concentration (M.I.C.)” value [3]?
Answer: Its value is 63 µg/mL.

Question: And the “Minimum Inhibitory Concentration (M.I.C.)” value [4]?
Answer: The value was greater than 63 µg/mL.

Question: And the MIC ([5]; A21205, read-out: Minimum Inhibitory Concentration (M.I.C.))?
Answer: The MIC was 4 µg/mL.

Question: For `CCC1=C(C(=O)O)N2C(=O)C[C@H]2S1` [Preparation 10, 2-Ethylpenem-3-carboxylic Acid], which MIC (K. pneumoniae A-15130; Klebsiella pneumoniae, A15130, K. pneumoniae A15130, read-out: Minimum Inhibitory Concentration (M.I.C.)) is on record?
Answer: The MIC was 8 µg/mL (≈ 40.2 µM).

Question: What about the MIC (Ent. cloacae A-9659; Enterobacter cloacae, A9659, Enterobacter cloacae A9659, read-out: Minimum Inhibitory Concentration (M.I.C.)) of the same compound?
Answer: Its MIC is 16 µg/mL (≈ 80.3 µM).

Question: And the MIC (Pr. vulgaris A-9716; Proteus vulgaris, A9716, Proteus vulgaris / Proteus mirabilis A9716, read-out: Minimum Inhibitory Concentration (M.I.C.))?
Answer: The MIC was 4 µg/mL (≈ 20.1 µM).

Question: And the MIC ([1]; read-out: Minimum Inhibitory Concentration (M.I.C.))?
Answer: Its MIC is greater than 125 µg/mL.

Question: And the MIC (Str. pneumoniae A-9585)?
Answer: Its MIC is 0.03 µg/mL (≈ 0.151 µM).

Question: What about the MIC (E. coli A-20341-1; Escherichia coli, A203411, read-out: Minimum Inhibitory Concentration (M.I.C.)) of the same compound?
Answer: Its MIC is 125 µg/mL (≈ 627 µM).

Question: What about the MIC (Ent. cloacae A-9656) of the same compound?
Answer: Its MIC is 16 µg/mL (≈ 80.3 µM).

Question: What about the MIC (Staph. aureus A-9537; Staphylococcus aureus, A9537, Staph. aureus A9537, read-out: Minimum Inhibitory Concentration (M.I.C.)) of the same compound?
Answer: The MIC was 0.13 µg/mL (≈ 0.653 µM).

Question: What about the MIC (Str. faecalis A-20688; Enterococcus faecalis, A20688, Str. faecalis A20688, read-out: Minimum Inhibitory Concentration (M.I.C.)) of the same compound?
Answer: The MIC was 32 µg/mL (≈ 161 µM).

Question: What about the MIC (Pr. morganii A-15153; Morganella morganii, A15153, Proteus morganii A15153, read-out: Minimum Inhibitory Concentration (M.I.C.)) of the same compound?
Answer: The MIC was 8 µg/mL (≈ 40.2 µM).

Question: What about the MIC (Ps. aeruginosa A-21213) of the same compound?
Answer: Its MIC is 125 µg/mL (≈ 627 µM).

Question: What about the MIC (Str. pyogenes A-9604) of the same compound?
Answer: Its MIC is 0.5 µg/mL (≈ 2.51 µM).

Question: And the MIC (Pr. mirabilis A-9900; Proteus mirabilis, A9900, Proteus mirabilis A9900, read-out: Minimum Inhibitory Concentration (M.I.C.))?
Answer: The MIC was 4 µg/mL (≈ 20.1 µM).

Question: What about the MIC (Ser. marcescens A-20019; Serratia marcescens, A20019, Serratia marcescens A20019, read-out: Minimum Inhibitory Concentration (M.I.C.)) of the same compound?
Answer: Its MIC is 4 µg/mL (≈ 20.1 µM).

Question: What about the MIC [2, 6] of the same compound?
Answer: Its MIC is 0.5 µg/mL (≈ 2.51 µM).

Question: What about the MIC (E. coli A-15119; Escherichia coli, A15119, E. coli A15119, read-out: Minimum Inhibitory Concentration (M.I.C.)) of the same compound?
Answer: Its MIC is 4 µg/mL (≈ 20.1 µM).

Question: And the MIC [3, 6]?
Answer: Its MIC is 0.5 µg/mL (≈ 2.51 µM).

Question: What about the MIC (Ps. aeruginosa A-9843A) of the same compound?
Answer: Its MIC is greater than 125 µg/mL.

Question: What about the MIC [4, 6] of the same compound?
Answer: Its MIC is 16 µg/mL.

Question: What about the MIC ([5]; A21205, Providencia stuartii (Pr. rettgeri) A21205, overnight 37° C., read-out: Minimum Inhibitory Concentration (M.I.C.)) of the same compound?
Answer: Its MIC is 4 µg/mL (≈ 20.1 µM).
